Results: patent US20220073536A1 (Rigel Pharmaceuticals, Inc., priority 2003, published 2022)
Where a name gives a salt, the structure may show the parent alone. Read-outs that look alike come from different tables or passages of the source. Each block holds one molecule with its values, some of them ahead of it.

Tested on: cultured human mast cells (CHMC)
Test: CHMC low cell density IgE activation: tryptase assay
Assay type: cell-based
Conditions: IgE activation
Procedure: Inhibition of degranulation was measured at both low and high cell density by quantifying the release of the granule specific factors tryptase, histamine and hexosaminidase. Inhibition of release and/or synthesis of lipid mediators was assessed by measuring the release of leukotriene LTC4 and inhibition of release and/or synthesis of cytokines was monitored by quantifying TNF-α, IL-6 and IL-13. Tryptase and hexosaminidase were quantified using fluorogenic substrates as described in their respective examples. […] The protocols of the various assays are provided below.
Pellet CHMC cells (980 rpm, 10 min) and resuspend in pre-warmed MT. Add 65 ul of cells to each 96-well plate. Depending on the degranulation activity for each particular CHMC donor, load 1000-1500 cells/well. Mix four times followed by a 1 hr incubation at 37° C. […] Stimulate cells by adding 25 ul of 6× anti-IgE solution to the appropriate plates. Add 25 ul MT to un-stimulated control wells. Mix twice following addition of the anti-IgE. Incubate at 37° C. for 30 minutes. […] Spin plates at 1000 rpm for 10 min to pellet cells. Transfer 25 ul of supernatant to a 96-well black bottom plate and add 100 ul of freshly diluted tryptase substrate solution to each well. Incubate plates at room temperature for 30 min.

[1] = Homo sapiens, Mast cell, low cell density CHMC, tryptase, 3 pt, read-out: LD Tryptase, CHMC, IgE, 3 pt
[2] = low cell density CHMC, tryptase, 3 pt, read-out: LD Tryptase, CHMC, IgE, 3 pt
[3] = low cell density CHMC, tryptase, 8 pt, read-out: LD Tryptase, CHMC, IgE, 8 pt
[4] = Homo sapiens, Mast cell, low cell density CHMC, tryptase, 8 pt, read-out: LD Tryptase, CHMC, IgE, 8 pt
[5] = Homo sapiens, Mast cell, low cell density CHMC, tryptase release, 8 pt, read-out: LD Tryptase, CHMC, IgE, 8 pt
[6] = low cell density CHMC, tryptase release, 8 pt, read-out: LD Tryptase, CHMC, IgE, 8 pt

Molecule: COc1cc(Nc2nc(Nc3ccc(OC)c(OC)c3OC)ncc2F)ccc1Cl [Compound 670]
- IC50 [1]: > 10 µM

Molecule: COc1ccc(Nc2ncc(F)c(Nc3ccc4c(c3)NC(=O)[C@@H](C)O4)n2)cc1Cl [Compound 211]
- IC50 (Homo sapiens, Mast cell, low cell density CHMC, tryptase release, 3 pt, read-out: LD Tryptase, CHMC, IgE, 3 pt): < 10 µM

Molecule: CCCn1cc2cc(Nc3ncc(F)c(Nc4ccc5c(c4)NC(=O)C(C)(C)O5)n3)ccc2n1 [Compound 763, N4-(2,2-Dimethyl-3-oxo-4H-benz[1,4]oxazin-6-yl)-5-fluoro-N2-(2-n-propylindazol-5-yl)-2,4-pyrimidinediamine]
- IC50 [1]: < 10 µM
- IC50 [4]: < 10 µM

Molecule: COc1cc(Nc2ncc(F)c(Nc3ccc4c(c3)NC(=O)C(C)(C)S4)n2)cc(OC)c1OC [Compound 292]
- IC50 [5]: < 10 µM

Molecule: COc1ccc(Nc2nc(Nc3ccc4c(cnn4CCCO)c3)ncc2F)cc1Cl [Compound 828, N4-(3-Chloro-4-methoxyphenyl)-5-fluoro-N2-[1-(3-hydroxypropyl)indazol-5-yl]-2,4-pyrimidinediamine Bis p-Toluenesulfonic Acid Salt]
- IC50 [5]: < 10 µM

Molecule: COc1cc(Nc2ncc(F)c(Nc3ccc4c(c3)NC(=O)CS4(=O)=O)n2)cc(OC)c1OC [Compound 306, 5-Fluoro-N2-(3,4,5-triimethoxylphenyl)-N4-(1,1,3-trioxo-2H,4H-benzo[1,4]thiazin-6-yl)-2,4-pyrimidinediamine]
- IC50 [6]: < 10 µM

Molecule: N2-[3,5-Bis (hydroxymethylene)phenyl]-N4- (3,4-dichlorophenyl)-5-fluoro-2,4-pyrimidinediamine [Compound 346]
- IC50 [3]: < 10 µM

Molecule: CNC(=O)Cn1ccc2cc(Nc3ncc(F)c(Nc4ccc(OC)c(Cl)c4)n3)ccc21 [Compound 654, N4-(3-Chloro-4-methoxyphenyl)-5-fluoro-N2-[1-(N-methylamino)carbonylmethyleneindol-5-yl]-2,4-pyrimidinediamine]
- IC50 (low cell density CHMC, tryptase release, 8 point, read-out: LD Tryptase, CHMC, IgE, 8 pt): < 10 µM

Molecule: CC1(C)Oc2ccc(Nc3ncc(F)c(Nc4ccc5c(n4)NC(=O)C(C)(C)O5)n3)nc2NC1=O [Compound 693, N2, N4-Bis (2,2-dimethyl-3-oxo-4H-5-pyrid[1,4]oxazin-6-yl)-5-fluoro-2,4-pyrimidinediamine]
- IC50 [2]: < 10 µM

Molecule: COc1ccc(Nc2ncc(F)c(Nc3ccc4c(c3)NC(=O)C(C)(C)S4(=O)=O)n2)cc1Cl [Compound 276]
- IC50 [6]: < 10 µM

Continued, values first:

- IC50 (low cell density CHMC, tryptase readout, 8 pt, read-out: LD Tryptase, CHMC, IgE, 8 pt): < 10 µM
Molecule: CN1CCN(c2cccc(Nc3ncc(F)c(Nc4ccc5c(n4)NC(=O)CO5)n3)c2)CC1 [Compound 1074, 5-Fluoro-N2-[3-(4-methylpiperazino)phenyl]-N4-(3-oxo-2H,4H-5-pyrid[1,4]oxazin-6-yl)-2,4-pyrimidinediamine]

- IC50 [2]: < 10 µM
- IC50 [3]: < 10 µM
Molecule: CC(=O)N1CCN(c2ccc(Nc3ncc(F)c(Nc4ccc5c(n4)NCCO5)n3)cc2)CC1 [Compound 1134, N2-[4-(4-Acetylpiperazino)phenyl]-N4-(3,4-dihydro-2H,4H-5-pyrid[1,4]oxazin-6-yl)-5-fluoro-2,4-pyrimidinediamine]

- IC50 (Homo sapiens, Mast cell, low cell density, 3 pt, read-out: LD Tryptase, CHMC, IgE, 3 pt): < 10 µM
- IC50 (Homo sapiens, Mast cell, low cell density, 8 pt, read-out: LD Tryptase, CHMC, IgE, 8 pt): < 10 µM
Molecule: COc1ccc(Nc2nc(Nc3ccc4c(c3)[nH]c(=O)n4C)ncc2F)cc1Cl [Compound 905]

- IC50 [4]: < 10 µM
Molecule: C[C@H]1Oc2ccc(Nc3nc(Nc4ccc(C(N)=O)cc4)ncc3F)cc2NC1=O [Compound 1265]

- IC50 [2]: < 10 µM
- IC50 [3]: < 10 µM
Molecule: N4- (Aminocarbonylphenyl)-5-fluoro-N2- (4-[N-[methoxycarbonylmethylene]aminocarbonyl]phenyl)-2,4-pyrimidinediamine [Compound 1338]

- IC50 [5]: < 10 µM
Molecule: C[C@@H]1Oc2ccc(Nc3nc(Nc4ccc5c(cnn5CCCNC(=O)C(C)(C)C)c4)ncc3F)cc2NC1=O [Compound 851, 5-Fluoro-(S)-N4-(2-methyl-3-oxo-4H-benz[1,4]oxazin-6-yl)-N2-[1-(3-pivalamidopropyl)indazol-5-yl]-2,4-pyrimidinediamine]

- IC50 [5]: < 10 µM
Molecule: CC1(C)Oc2ccc(Nc3nc(Nc4ccc5c(cnn5CCCNS(=O)(=O)C(F)(F)F)c4)ncc3F)cc2NC1=O [Compound 842, N4-(2,2-Dimethyl-3-oxo-4H-benz[1,4]oxazin-6-yl)-5-fluoro-N2-[1-[3-(N-trifluoromethylsulfonylamino)propyl]indazol-5-yl]-2,4-pyrimidinediamine]
